{"source": "patent US8541379B2", "about": "(Ajinomoto Co., Inc., priority 2009, dated 2013)", "assay_type_in_all_cases": "in vivo, human", "key": {"[1]": {"test": "Paired comparison sensory test, basil (Labiatae) herb/spice solution", "conditions": "0.5% basil solution, N=9", "procedure": "More specifically, the sensory evaluation test was carried out according to the following procedures: Commercially available typical herb/spice in powdery form was dispersed in water in a concentration of 0.5% by mass to thus form a herb/spice solution. This solution was admixed with γ-Glu-Nva, γ-Glu-Cys-Gly, or γ-Glu-Abu as a test compound. According to the paired comparison test, the panelists were requested to comparatively evaluate the following three samples and to judge whether “any of them was preferred since it could enhance the flavor and taste of the herb/spice solution without changing the balance between them”: (1) 0.02% by mass of γ-Glu-Cys-Gly whose kokumi-imparting activity was identical to 0.00015% by mass of γ-Glu-Nva; (2) 0.00015% by mass of γ-Glu-Abu, the amount of which was identical to 0.00015% by mass of γ-Glu-Nva; (3) 0.003% by mass of γ-Glu-Abu whose kokumi-imparting activity was identical to that observed for 0.00015% by mass of γ-Glu-Nva. The panelists used in this test were persons who had been engaged in the development of seasonings for foods over not less than one year of the cumulative time period and who could judge that the difference in the titer between γ-Glu-Cys-Gly and γ-Glu-Val-Gly added to a solution having umami/salty taste is about 10 times (while confirming the ability of these persons at regular intervals). The evaluation was carried out at N (the number of panelists used)=9."}, "[2]": {"test": "Paired comparison sensory test, solution of miso", "conditions": "10.0% miso solution, N=9", "procedure": "More specifically, the sensory evaluation test was carried out according to the following procedures: Commercially available miso (ingredients: soybeans and barley) for popular use was dispersed in hot water in a concentration of 10.0% by mass to thus form a solution of miso. This solution was admixed with γ-Glu-Nva, γ-Glu-Cys-Gly, or γ-Glu-Abu as a test compound. According to the paired comparison test method (pair test), the panelists were requested to comparatively evaluate the following three samples and to judge whether “any of them was preferred or favorable since it could enhance the flavor and taste of the solution of miso without changing the balance between them”: (1) 0.02% by mass of γ-Glu-Cys-Gly whose kokumi-imparting activity was identical to 0.0004% by mass of γ-Glu-Nva; (2) 0.0004% by mass of γ-Glu-Abu, the amount of which was identical to 0.0004% by mass of γ-Glu-Nva; (3) 0.003% by mass of γ-Glu-Abu whose kokumi-imparting activity was identical to that observed for 0.0004% by mass of γ-Glu-Nva. The panelists used in this test were persons who had been engaged in the development of seasonings for foods over not less than one year of the cumulative time period and who could judge that the difference in the titer between γ-Glu-Cys-Gly and γ-Glu-Val-Gly added to a solution having umami/salty taste is about 10 times (while confirming the ability of these persons at regular intervals). The evaluation was carried out at N (the number of panelists used)=9."}, "[3]": {"test": "Quantitative sensory evaluation test of kokumi-imparting activity", "conditions": "n=4", "procedure": "This quantitative sensory evaluation test was carried out according to the following procedures: The intensity of the kokumi-imparting activity observed for each test compound was determined as a value observed when blending 0.00001 to 0.5 g/dL of the corresponding test compound with the distilled water containing sodium glutamate (0.05 g/dL), inosinic acid monophosphate (0.05 g/dL), and sodium chloride (0.5 g/dL). […] The evaluation criteria are assumed to be as follows: control: 0 point; strong: 3 points; very strong: 5 points. Moreover, to clarify the criteria, the initial taste and the middle/after taste of γ-Glu-Val-Gly were set at 3.0 points, respectively. The scoring or rating was carried out using the method of line scale and more specifically, it was carried out by writing each corresponding score on a straight line on which points corresponding to −5˜0˜5 had been indicated. The panelists used in this test were defined to be persons who had been engaged in the development of seasonings for foods over not less than one year of the cumulative time period and who could judge that the difference in the titer between γ-Glu-Cys-Gly and γ-Glu-Val-Gly added to a solution having umami/salty taste is about 10 times (while confirming the ability of these persons at regular intervals). The evaluation was carried out at n (the number of panelists used)=4. The term “initial taste” means the taste which develops from 0 to 2 seconds after the sample is placed in the panelist's mouth, while the term “middle/after taste” means the taste which develops thereafter.\nIn addition, γ-Glu-Val-Gly, γ-Glu-Cys, γ-Glu-Val, γ-Glu-Ala and γ-Glu-Ser were likewise inspected for their kokumi-imparting effect according to the same procedures used above."}, "[4]": {"test": "Paired comparison sensory test, solution of tomato catsup", "conditions": "33.3% tomato catsup solution, N=9, significant level of 1%", "procedure": "More specifically, the sensory evaluation test was carried out according to the following procedures: Commercially available tomato catsup for popular use was dispersed in hot water in a concentration of 33.3% by mass to thus form a solution of tomato catsup. This solution was admixed with γ-Glu-Nva, γ-Glu-Cys-Gly, or γ-Glu-Abu as a test compound. According to the paired comparison test method (pair test), the panelists were requested to comparatively evaluate the following three samples and to judge whether “any of them was preferred or favorable since it could enhance the flavor and taste of the solution of tomato catsup without changing the balance between them”: (1) 0.02% by mass of γ-Glu-Cys-Gly whose kokumi-imparting activity was identical to 0.0004% by mass of γ-Glu-Nva; (2) 0.0004% by mass of γ-Glu-Abu, the amount of which was identical to 0.0004% by mass of γ-Glu-Nva; (3) 0.003% by mass of γ-Glu-Abu whose kokumi-imparting activity was identical to that observed for 0.0004% by mass of γ-Glu-Nva. The panelists used in this test were persons who had been engaged in the development of seasonings for foods over not less than one year of the cumulative time period and who could judge that the difference in the titer between γ-Glu-Cys-Gly and γ-Glu-Val-Gly added to a solution having umami/salty taste was about 10 times (while confirming the ability of these persons at regular intervals). The evaluation was carried out at N (the number of panelists used)=9.\nHowever, the results observed for tomato catsup are shown in Table 6 as the typical example thereof."}}, "note": "Marks after values point to notes of the source that are not given here.", "data": [{"smiles": "CCC[C@H](NC(=O)CC[C@H](N)C(=O)O)C(=O)O", "note": "[γ-Glu-Nva, γ-L-glutamyl-L-norvaline]", "values": [{"measurement": "No. of Panelists who judged γ-Glu-Nva rather preferred", "setting": "[1]; 0.00015 wt % γ-Glu-Nva vs 0.00015 wt % γ-Glu-Abu, significant level of 1%", "value": "9/9**"}, {"measurement": "No. of Panelists who judged γ-Glu-Nva rather preferred", "setting": "[1]; 0.00015 wt % γ-Glu-Nva vs 0.003 wt % γ-Glu-Abu, significant level of 5%", "value": "8/9***"}, {"measurement": "No. of Panelists who judged γ-Glu-Nva rather preferred", "setting": "[1]; 0.00015 wt % γ-Glu-Nva vs 0.02 wt % γ-Glu-Cys-Gly, significant level of 1%", "value": "9/9**"}, {"measurement": "No. of Panelists who judged γ-Glu-Nva rather preferred", "setting": "[2]; 0.0004 wt % γ-Glu-Nva vs 0.0004 wt % γ-Glu-Abu, significant level of 1%", "value": "9/9***"}, {"measurement": "No. of Panelists who judged γ-Glu-Nva rather preferred", "setting": "[2]; 0.0004 wt % γ-Glu-Nva vs 0.003 wt % γ-Glu-Abu, significant level of 1%", "value": "9/9***"}, {"measurement": "No. of Panelists who judged γ-Glu-Nva rather preferred", "setting": "[2]; 0.0004 wt % γ-Glu-Nva vs 0.02 wt % γ-Glu-Cys-Gly, significant level of 5%", "value": "8/9**"}, {"measurement": "Sensory Evaluation Profile", "setting": "[3]; 0.0001 g/dL in umami/salty solution", "value": "Mainly the initial and middle tastes"}, {"measurement": "Intensity of kokumi, Middle/After Taste", "setting": "[3]; 0.0001 g/dL in water with MSG 0.05, IMP 0.05, NaCl 0.5 g/dL", "value": 2.8, "unit": "points"}, {"measurement": "Intensity of kokumi, Initial Taste", "setting": "[3]; 0.0001 g/dL in water with MSG 0.05, IMP 0.05, NaCl 0.5 g/dL, scale control 0, strong 3, very strong 5", "value": 3.6, "unit": "points"}, {"measurement": "No. of Panelists who judged γ-Glu-Nva rather preferred", "setting": "[4]; 0.0004 wt % γ-Glu-Nva vs 0.0004 wt % γ-Glu-Abu", "value": "9/9**"}, {"measurement": "No. of Panelists who judged γ-Glu-Nva rather preferred", "setting": "[4]; 0.0004 wt % γ-Glu-Nva vs 0.003 wt % γ-Glu-Abu", "value": "9/9**"}, {"measurement": "No. of Panelists who judged γ-Glu-Nva rather preferred", "setting": "[4]; 0.0004 wt % γ-Glu-Nva vs 0.02 wt % γ-Glu-Cys-Gly", "value": "9/9**"}]}]}
